Measurements taken from PubChem BioAssay AID248 (DTP/NCI, 2004).
Several values for one entry are separate records, joined by “and”; a condition that tells them apart may be missing. Equal entries are not always repeated. Toxic doses and inconclusive results are not listed. Rule as the data show it: active = T/C of 150% or more; inactive = T/C below 125%.

Tested on: L1210 leukemia ip in BDF1 mice, survival T/C
Test: NCI In Vivo Anticancer Drug Screen. Data for tumor model L1210 Leukemia (intraperitoneal) in B6D2F1 (BDF1) mice
Conditions: endpoint: mean survival time, higher = longer survival
How it was run: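 Each compound was tested against a transplantable tumor grown in mice. The endpoint was survival, with treated animals benchmarked against vehicle controls as a simple ratio.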

[1] = dose: 100.0 mg/kg/injection, schedule: Q04DX003 (ip), vehicle: Klucel (hydroxypropylcellulose) (HPC)
[2] = dose: 200.0 mg/kg/injection, schedule: Q04DX003 (ip), vehicle: Klucel (hydroxypropylcellulose) (HPC)
[3] = dose: 400.0 mg/kg/injection, schedule: Q04DX003 (ip), vehicle: Klucel (hydroxypropylcellulose) (HPC)
[4] = dose: 100.0 mg/kg/injection, schedule: Q04DX003 (ip), vehicle: saline
[5] = dose: 200.0 mg/kg/injection, schedule: Q04DX003 (ip), vehicle: saline
[6] = dose: 50.0 mg/kg/injection, schedule: Q04DX003 (ip), vehicle: saline with Tween-80
[7] = dose: 100.0 mg/kg/injection, schedule: Q01DX009 (ip), vehicle: saline with Tween-80
[8] = dose: 100.0 mg/kg/injection, schedule: Q04DX003 (ip), vehicle: saline with Tween-80
[9] = dose: 200.0 mg/kg/injection, schedule: Q01DX009 (ip), vehicle: saline with Tween-80
[10] = dose: 200.0 mg/kg/injection, schedule: Q04DX003 (ip), vehicle: saline with Tween-80
[11] = dose: 100.0 mg/kg/injection, schedule: Q01DX001 (ip), vehicle: saline
[12] = dose: 200.0 mg/kg/injection, schedule: Q01DX001 (ip), vehicle: saline
[13] = dose: 400.0 mg/kg/injection, schedule: Q01DX001 (ip), vehicle: saline
[14] = dose: 400.0 mg/kg/injection, schedule: Q01DX009 (ip), vehicle: saline with Tween-80

Measured: T/C

O=c1[nH]cnc2c1ncn2Cc1ccccc1
inactive: dose: 100.0 mg/kg/injection, schedule: Q01DX001 (ip), vehicle: saline with Tween-80 104 % of control | dose: 200.0 mg/kg/injection, schedule: Q01DX001 (ip), vehicle: saline with Tween-80 102 % of control | dose: 400.0 mg/kg/injection, schedule: Q01DX001 (ip), vehicle: saline with Tween-80 96 % of control

[CH3][Sn]([Br])([Br])[CH2]CCCBr
inactive: dose: 1.56 mg/kg/injection, schedule: Q01DX009 (ip), vehicle: saline 103 % of control | dose: 3.12 mg/kg/injection, schedule: Q01DX009 (ip), vehicle: saline 112 % of control | dose: 6.25 mg/kg/injection, schedule: Q01DX009 (ip), vehicle: saline 100 % of control

CCOC(=O)c1cnc2onc(C)c2c1Nc1cccc(C(F)(F)F)c1
inactive: [1] 90 % of control | [2] 97 % of control | [3] 101 % of control

CCOCCOCCOC(C)Oc1cccc(OC)c1 (stereo not given)
inactive: dose: 100.0 mg/kg/injection, schedule: Q04DX002 (ip), vehicle: saline 107 % of control | dose: 200.0 mg/kg/injection, schedule: Q04DX002 (ip), vehicle: saline 101 % of control | dose: 400.0 mg/kg/injection, schedule: Q04DX002 (ip), vehicle: saline 96 % of control

CN(C)c1ccc(/C(=C(\c2ccccc2)c2ccc(N(C)C)cc2)c2ccccc2)cc1
inactive: [1] 90 % of control | [2] 93 % of control | [3] 89 % of control

O=C1CC=C(Nc2ccc(Br)cc2)C(=O)O1
inactive: [4] 106 % of control | [5] 108 % of control | dose: 400.0 mg/kg/injection, schedule: Q04DX003 (ip), vehicle: saline 108 % of control

NC1CCCC[N-]1.NC1CCCC[N-]1.NC1CCCC[N-]1.[Cl][Cr]([Cl])[Cl] (stereo not given)
inactive: dose: 18.75 mg/kg/injection, schedule: Q04DX003 (ip), vehicle: saline 94 % of control | dose: 37.5 mg/kg/injection, schedule: Q04DX003 (ip), vehicle: saline 92 % of control | dose: 75.0 mg/kg/injection, schedule: Q04DX003 (ip), vehicle: saline 89 % of control

[O-][N+](=Nc1cccc(Cl)c1)c1cccc(Cl)c1
inactive: dose: 50.0 mg/kg/injection, schedule: Q01DX009 (ip), vehicle: saline with Tween-80 97 % of control | [6] 102 % of control | [7] 101 % of control | [8] 98 % of control | [9] 97 % of control | [10] 112 % of control

COC(=O)C(N=O)C(=O)OC
inactive: [11] 104 % of control | [12] 109 % of control | [13] 106 % of control

OC1CC2CCC1CC2 (stereo not given)
inactive: [7] 100 % of control | [8] 89 % of control | [9] 97 % of control | [10] 96 % of control | [14] 102 % of control | dose: 400.0 mg/kg/injection, schedule: Q04DX003 (ip), vehicle: saline with Tween-80 86 % of control

CC(=O)OCC(=O)[C@@]1(O)CC[C@H]2[C@@H]3CCC4=CC(=O)[C@H](C)C[C@]4(C)[C@@]3(F)[C@@H](O)C[C@@]21C
inactive: dose: 50.0 mg/kg/injection, schedule: Q01DX Z (sc), vehicle: steriod suspending solution 114 % of control | dose: 100.0 mg/kg/injection, schedule: Q01DX Z (sc), vehicle: steriod suspending solution 114 % of control

CCCCCCCCCN1C(=O)c2ccccc2S1(=O)=O
inactive: dose: 222.0 mg/kg/injection, schedule: Q01DX Z (ip), vehicle: saline 100 % of control | dose: 333.0 mg/kg/injection, schedule: Q01DX Z (ip), vehicle: saline 97 % of control | dose: 500.0 mg/kg/injection, schedule: Q01DX Z (ip), vehicle: saline 91 % of control

O=c1cc(O)c2c(O)cc(O)cc2o1
inactive: [11] 96 % of control | [12] 96 % of control | [13] 88 % of control

CCCCCCCCCCCCCCCCCCNC(=O)Nc1cccc2ccccc12
inactive: dose: 100.0 mg/kg/injection, schedule: Q01DX009 (ip), vehicle: carboxymethylcellulose (CMC) 87 % of control | dose: 100.0 mg/kg/injection, schedule: Q04DX002 (ip), vehicle: Klucel (hydroxypropylcellulose) (HPC) 101 % of control | dose: 100.0 mg/kg/injection, schedule: Q04DX002 (ip), vehicle: carboxymethylcellulose (CMC) 87 % of control | dose: 100.0 mg/kg/injection, schedule: Q04DX003 (ip), vehicle: carboxymethylcellulose (CMC) 106 % of control | dose: 200.0 mg/kg/injection, schedule: Q01DX009 (ip), vehicle: carboxymethylcellulose (CMC) 87 % of control | dose: 200.0 mg/kg/injection, schedule: Q04DX002 (ip), vehicle: Klucel (hydroxypropylcellulose) (HPC) 101 % of control | dose: 200.0 mg/kg/injection, schedule: Q04DX002 (ip), vehicle: carboxymethylcellulose (CMC) 93 % of control and 95 % of control | dose: 200.0 mg/kg/injection, schedule: Q04DX003 (ip), vehicle: carboxymethylcellulose (CMC) 96 % of control | dose: 400.0 mg/kg/injection, schedule: Q01DX009 (ip), vehicle: carboxymethylcellulose (CMC) 94 % of control and 97 % of control | dose: 400.0 mg/kg/injection, schedule: Q04DX002 (ip), vehicle: carboxymethylcellulose (CMC) 93 % of control and 88 % of control | dose: 400.0 mg/kg/injection, schedule: Q04DX003 (ip), vehicle: carboxymethylcellulose (CMC) 90 % of control

CCOC(=O)c1ccc(Cn2c(C)cc(=O)n(Cc3ccc(C(=O)OCC)cc3)c2=O)cc1
inactive: dose: 100.0 mg/kg/injection, schedule: Q01DX001 (ip), vehicle: Klucel (hydroxypropylcellulose) (HPC) 102 % of control | dose: 200.0 mg/kg/injection, schedule: Q01DX001 (ip), vehicle: Klucel (hydroxypropylcellulose) (HPC) 94 % of control | dose: 400.0 mg/kg/injection, schedule: Q01DX001 (ip), vehicle: Klucel (hydroxypropylcellulose) (HPC) 91 % of control

COc1ccc(C(=O)N(C)c2ccccc2)cc1
inactive: [1] 94 % of control | [2] 89 % of control | [3] 93 % of control

CCCCCCCCCCCCCC[n+]1ccc(C#N)cc1
inactive: dose: 7.5 mg/kg/injection, schedule: Q04DX003 (ip), vehicle: saline 101 % of control | dose: 15.0 mg/kg/injection, schedule: Q04DX003 (ip), vehicle: saline 95 % of control | dose: 30.0 mg/kg/injection, schedule: Q04DX003 (ip), vehicle: saline 96 % of control

O=[N+]([O-])c1ccc(/C=C/C=C/c2ccccc2)cc1
inactive: [7] 105 % of control | [9] 92 % of control | [14] 89 % of control

Cc1ccc(S(=O)(=O)NC(=O)Oc2c(C(C)C)cccc2C(C)C)cc1
inactive: dose: 50.0 mg/kg/injection, schedule: Q04DX003 (ip), vehicle: saline 110 % of control | [4] 110 % of control | [5] 102 % of control

COc1cc2ccnc(-c3onc4cc(OC)c(OC)cc34)c2cc1OC
inactive: dose: 75.0 mg/kg/injection, schedule: Q01DX001 (ip), vehicle: saline 101 % of control | dose: 150.0 mg/kg/injection, schedule: Q01DX001 (ip), vehicle: saline 98 % of control | dose: 300.0 mg/kg/injection, schedule: Q01DX001 (ip), vehicle: saline 98 % of control

CC(C)=CCOC(N)=O
inactive: [1] 95 % of control | [2] 104 % of control | [3] 109 % of control

CNN
inactive: dose: 20.0 mg/kg/injection, schedule: Q04DX003 (ip), vehicle: saline 101 % of control | dose: 25.0 mg/kg/injection, schedule: Q01DX009 (ip), vehicle: saline 103 % of control | dose: 40.0 mg/kg/injection, schedule: Q04DX003 (ip), vehicle: saline 121 % of control | dose: 80.0 mg/kg/injection, schedule: Q04DX003 (ip), vehicle: saline 111 % of control | [4] 96 % of control

O=C(NCCCl)Nc1ccccn1
inactive: [1] 90 % of control | [2] 94 % of control | [3] 86 % of control

CN(C)c1ccccc1C(=O)N/N=C\c1ccc(Cl)cc1
inactive: dose: 100.0 mg/kg/injection, schedule: Q04DX002 (ip), vehicle: gum acacia 96 % of control | dose: 200.0 mg/kg/injection, schedule: Q04DX002 (ip), vehicle: gum acacia 107 % of control | dose: 400.0 mg/kg/injection, schedule: Q04DX002 (ip), vehicle: gum acacia 100 % of control

[CH3][Sb]([CH3])([CH3])([O]C(=O)CBr)[O]C(=O)CBr
inactive: dose: 12.5 mg/kg/injection, schedule: Q04DX003 (ip), vehicle: saline with Tween-80 102 % of control | dose: 25.0 mg/kg/injection, schedule: Q04DX003 (ip), vehicle: saline with Tween-80 87 % of control | [6] 91 % of control

C=CCOC(=O)CCCCCCCCCCC
inactive: [7] 107 % of control | [9] 107 % of control | [14] 96 % of control

[O-][n+]1ccccc1CCl
inactive: dose: 50.0 mg/kg/injection, schedule: Q01DX001 (ip), vehicle: saline 98 % of control | [11] 100 % of control
